Experimental data published in the kinase profiling compilation of Christmann-Franck et al. (2016).

What was measured:
Assay in all cases: KINOMEscan competition binding
Conditions in all cases: compound 0.5 µM
PTK2B (human) = PTK2B (human) (UniProt Q14289)
MAPK10 (human) = MAPK10 (human) (UniProt P53779)
DAPK1 (human) = DAPK1 (human) (UniProt P53355)
ZAP70 (human) = ZAP70 (human) (UniProt P43403)
PRKCQ (human) = PRKCQ (human) (UniProt Q04759)
MAPK3 (human) = MAPK3 (human) (UniProt P27361)
RIPK4 (human) = RIPK4 (human) (UniProt P57078)
STK10 (human) = STK10 (human) (UniProt O94804)
MKNK1 (human) = MKNK1 (human) (UniProt Q9BUB5)
CLK3 (human) = CLK3 (human) (UniProt P49761)
CAMKK1 (human) = CAMKK1 (human) (UniProt Q8N5S9)
[1] = tested on: FLT3 (human), P36888 [D835H]
PRPF4B (human) = PRPF4B (human) (UniProt Q13523)
[2] = tested on: EIF2AK4 KD2 (human), Q9P2K8 [S808G]
PRKACB (human) = PRKACB (human) (UniProt P22694)
EPHA5 (human) = EPHA5 (human) (UniProt P54756)
ICK (human) = ICK (human) (UniProt Q9UPZ9)
PAK4 (human) = PAK4 (human) (UniProt O96013)
[3] = molecular target: JAK1 JH2 pseudokinase (human) (UniProt P23458)
GSK3B (human) = GSK3B (human) (UniProt P49841)
[4] = tested on: PIK3CA (human), P42336 [E545A]
NTRK1 (human) = NTRK1 (human) (UniProt P04629)
ROS1 (human) = ROS1 (human) (UniProt P08922)
TYRO3 (human) = TYRO3 (human) (UniProt Q06418)
TEK (human) = TEK (human) (UniProt Q02763)
PRKAA2 (human) = PRKAA2 (human) (UniProt P54646)
[5] = tested on: PIK3CA (human), P42336 [C420R]
[6] = molecular target: TYK2 JH1 catalytic (human) (UniProt P29597)
PRKD1 (human) = PRKD1 (human) (UniProt Q15139)
[7] = tested on: PIK3CA (human), P42336 [E545K]
LYN (human) = LYN (human) (UniProt P07948)
[8] = tested on: RET (human), P07949 [V804L]
TTK (human) = TTK (human) (UniProt P33981)
CLK2 (human) = CLK2 (human) (UniProt P49760)
EPHA1 (human) = EPHA1 (human) (UniProt P21709)
YSK4 (human) = YSK4 (human) (UniProt Q56UN5)
TIE1 (human) = TIE1 (human) (UniProt P35590)
SIK3 (human) = SIK3 (human) (UniProt Q9Y2K2)
STK11 (human) = STK11 (human) (UniProt Q15831)
PIP5K1C (human) = PIP5K1C (human) (UniProt O60331)
CLK1 (human) = CLK1 (human) (UniProt P49759)
CDK5 (human) = CDK5 (human) (UniProt Q00535)

Sequence of EIF2AK4 KD2 (human), Q9P2K8 [S808G] (Q9P2K8 whole entry S808G, looked up): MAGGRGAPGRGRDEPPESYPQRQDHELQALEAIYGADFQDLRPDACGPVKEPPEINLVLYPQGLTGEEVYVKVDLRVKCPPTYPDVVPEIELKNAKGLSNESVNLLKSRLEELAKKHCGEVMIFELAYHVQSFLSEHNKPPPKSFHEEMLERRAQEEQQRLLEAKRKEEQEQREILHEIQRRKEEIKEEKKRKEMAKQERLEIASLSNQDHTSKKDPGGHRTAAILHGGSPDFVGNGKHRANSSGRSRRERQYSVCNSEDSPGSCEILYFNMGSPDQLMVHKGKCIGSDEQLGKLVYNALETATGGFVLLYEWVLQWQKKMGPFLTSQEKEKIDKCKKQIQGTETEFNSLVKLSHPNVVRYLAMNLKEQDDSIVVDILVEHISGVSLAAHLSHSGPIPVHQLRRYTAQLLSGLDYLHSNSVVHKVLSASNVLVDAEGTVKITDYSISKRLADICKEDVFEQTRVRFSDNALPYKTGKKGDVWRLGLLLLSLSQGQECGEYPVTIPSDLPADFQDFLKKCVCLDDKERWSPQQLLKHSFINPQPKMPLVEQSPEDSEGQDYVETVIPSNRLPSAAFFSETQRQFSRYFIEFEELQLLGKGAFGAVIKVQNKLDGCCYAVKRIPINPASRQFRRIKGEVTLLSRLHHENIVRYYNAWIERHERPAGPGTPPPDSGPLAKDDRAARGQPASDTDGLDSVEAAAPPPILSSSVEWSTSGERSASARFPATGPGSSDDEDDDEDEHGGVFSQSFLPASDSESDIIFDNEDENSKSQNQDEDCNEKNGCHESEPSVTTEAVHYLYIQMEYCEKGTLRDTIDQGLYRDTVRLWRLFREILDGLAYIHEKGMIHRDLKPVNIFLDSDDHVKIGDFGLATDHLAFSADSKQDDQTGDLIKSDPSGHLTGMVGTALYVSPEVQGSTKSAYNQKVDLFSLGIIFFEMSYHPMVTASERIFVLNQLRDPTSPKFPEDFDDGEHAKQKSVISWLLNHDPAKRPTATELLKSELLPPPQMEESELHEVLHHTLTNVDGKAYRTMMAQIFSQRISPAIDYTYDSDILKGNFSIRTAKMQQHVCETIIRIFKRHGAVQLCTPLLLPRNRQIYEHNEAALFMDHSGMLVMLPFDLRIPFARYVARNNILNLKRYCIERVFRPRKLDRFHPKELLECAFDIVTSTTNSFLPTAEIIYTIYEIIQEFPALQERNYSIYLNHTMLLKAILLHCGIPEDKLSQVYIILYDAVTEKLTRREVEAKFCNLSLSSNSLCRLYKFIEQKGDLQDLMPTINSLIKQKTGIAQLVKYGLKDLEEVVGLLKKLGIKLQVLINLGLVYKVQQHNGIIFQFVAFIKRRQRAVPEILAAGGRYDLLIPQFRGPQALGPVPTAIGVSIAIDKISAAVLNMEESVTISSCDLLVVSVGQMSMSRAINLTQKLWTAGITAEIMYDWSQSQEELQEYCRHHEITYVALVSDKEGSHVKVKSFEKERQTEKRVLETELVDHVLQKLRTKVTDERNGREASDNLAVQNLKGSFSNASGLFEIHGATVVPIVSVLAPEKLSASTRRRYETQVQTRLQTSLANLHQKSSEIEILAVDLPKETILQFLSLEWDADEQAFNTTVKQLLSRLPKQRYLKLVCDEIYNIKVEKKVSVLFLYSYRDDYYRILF
Sequence of RET (human), P07949 [V804L] (P07949 whole entry V804L, looked up): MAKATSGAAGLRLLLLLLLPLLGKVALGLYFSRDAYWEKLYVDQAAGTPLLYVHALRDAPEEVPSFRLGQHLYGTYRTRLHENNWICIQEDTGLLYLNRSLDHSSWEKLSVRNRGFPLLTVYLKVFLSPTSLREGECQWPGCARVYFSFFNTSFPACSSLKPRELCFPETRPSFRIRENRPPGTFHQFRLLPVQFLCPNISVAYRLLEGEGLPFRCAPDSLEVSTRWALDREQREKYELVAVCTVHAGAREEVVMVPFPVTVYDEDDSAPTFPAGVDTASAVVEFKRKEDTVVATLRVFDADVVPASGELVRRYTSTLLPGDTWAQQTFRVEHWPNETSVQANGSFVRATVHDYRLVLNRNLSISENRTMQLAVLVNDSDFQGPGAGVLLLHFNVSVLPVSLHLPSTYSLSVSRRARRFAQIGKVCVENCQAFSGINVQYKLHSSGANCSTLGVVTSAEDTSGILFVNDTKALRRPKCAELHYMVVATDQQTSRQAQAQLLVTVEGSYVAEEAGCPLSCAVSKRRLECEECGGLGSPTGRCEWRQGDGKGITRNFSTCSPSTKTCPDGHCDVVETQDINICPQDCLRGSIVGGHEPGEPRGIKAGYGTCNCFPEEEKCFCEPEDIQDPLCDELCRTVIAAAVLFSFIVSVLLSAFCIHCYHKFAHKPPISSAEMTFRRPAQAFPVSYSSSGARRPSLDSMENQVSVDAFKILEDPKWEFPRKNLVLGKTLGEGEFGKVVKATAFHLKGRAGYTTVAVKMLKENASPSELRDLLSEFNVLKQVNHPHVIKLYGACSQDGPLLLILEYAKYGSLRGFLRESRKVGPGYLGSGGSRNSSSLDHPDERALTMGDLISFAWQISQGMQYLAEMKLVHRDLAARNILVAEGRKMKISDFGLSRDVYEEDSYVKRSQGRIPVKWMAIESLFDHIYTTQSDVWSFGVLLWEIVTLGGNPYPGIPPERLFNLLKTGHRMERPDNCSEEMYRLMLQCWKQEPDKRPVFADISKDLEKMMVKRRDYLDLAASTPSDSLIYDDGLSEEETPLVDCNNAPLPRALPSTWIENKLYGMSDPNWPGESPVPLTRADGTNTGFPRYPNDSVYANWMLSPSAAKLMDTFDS
Sequence of JAK1 JH2 pseudokinase (human) (P23458 whole entry, looked up): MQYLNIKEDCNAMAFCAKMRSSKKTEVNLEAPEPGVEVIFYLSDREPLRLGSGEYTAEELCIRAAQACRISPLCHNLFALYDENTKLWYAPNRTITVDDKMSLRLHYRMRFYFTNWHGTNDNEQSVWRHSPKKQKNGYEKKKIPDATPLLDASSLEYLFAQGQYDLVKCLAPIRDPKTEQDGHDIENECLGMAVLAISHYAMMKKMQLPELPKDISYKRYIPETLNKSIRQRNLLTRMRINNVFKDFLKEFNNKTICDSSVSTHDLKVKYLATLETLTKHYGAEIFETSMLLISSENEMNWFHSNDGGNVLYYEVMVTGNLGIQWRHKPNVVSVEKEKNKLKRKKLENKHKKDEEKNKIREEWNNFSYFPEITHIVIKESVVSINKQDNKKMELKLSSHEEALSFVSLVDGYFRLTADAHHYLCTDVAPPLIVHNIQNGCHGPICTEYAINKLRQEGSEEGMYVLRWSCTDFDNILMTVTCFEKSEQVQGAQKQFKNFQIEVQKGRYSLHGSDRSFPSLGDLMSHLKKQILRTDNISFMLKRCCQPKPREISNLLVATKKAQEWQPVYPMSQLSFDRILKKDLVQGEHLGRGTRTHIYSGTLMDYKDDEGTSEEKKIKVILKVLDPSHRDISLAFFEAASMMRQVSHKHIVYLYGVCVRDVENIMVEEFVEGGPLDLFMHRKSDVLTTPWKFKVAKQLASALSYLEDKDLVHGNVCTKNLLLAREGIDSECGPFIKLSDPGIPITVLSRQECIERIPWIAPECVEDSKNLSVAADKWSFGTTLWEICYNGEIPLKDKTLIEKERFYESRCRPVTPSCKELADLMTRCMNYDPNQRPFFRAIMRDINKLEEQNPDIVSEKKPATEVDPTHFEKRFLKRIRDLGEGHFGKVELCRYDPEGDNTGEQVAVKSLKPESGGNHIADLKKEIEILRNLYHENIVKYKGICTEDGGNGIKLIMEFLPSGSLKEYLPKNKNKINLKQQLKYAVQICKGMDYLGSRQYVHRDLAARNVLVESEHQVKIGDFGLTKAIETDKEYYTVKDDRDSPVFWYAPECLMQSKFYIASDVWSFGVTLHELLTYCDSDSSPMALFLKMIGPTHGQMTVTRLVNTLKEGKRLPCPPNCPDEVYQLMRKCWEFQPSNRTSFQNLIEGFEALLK
Sequence of PIK3CA (human), P42336 [E545K] (P42336 whole entry E545K, looked up): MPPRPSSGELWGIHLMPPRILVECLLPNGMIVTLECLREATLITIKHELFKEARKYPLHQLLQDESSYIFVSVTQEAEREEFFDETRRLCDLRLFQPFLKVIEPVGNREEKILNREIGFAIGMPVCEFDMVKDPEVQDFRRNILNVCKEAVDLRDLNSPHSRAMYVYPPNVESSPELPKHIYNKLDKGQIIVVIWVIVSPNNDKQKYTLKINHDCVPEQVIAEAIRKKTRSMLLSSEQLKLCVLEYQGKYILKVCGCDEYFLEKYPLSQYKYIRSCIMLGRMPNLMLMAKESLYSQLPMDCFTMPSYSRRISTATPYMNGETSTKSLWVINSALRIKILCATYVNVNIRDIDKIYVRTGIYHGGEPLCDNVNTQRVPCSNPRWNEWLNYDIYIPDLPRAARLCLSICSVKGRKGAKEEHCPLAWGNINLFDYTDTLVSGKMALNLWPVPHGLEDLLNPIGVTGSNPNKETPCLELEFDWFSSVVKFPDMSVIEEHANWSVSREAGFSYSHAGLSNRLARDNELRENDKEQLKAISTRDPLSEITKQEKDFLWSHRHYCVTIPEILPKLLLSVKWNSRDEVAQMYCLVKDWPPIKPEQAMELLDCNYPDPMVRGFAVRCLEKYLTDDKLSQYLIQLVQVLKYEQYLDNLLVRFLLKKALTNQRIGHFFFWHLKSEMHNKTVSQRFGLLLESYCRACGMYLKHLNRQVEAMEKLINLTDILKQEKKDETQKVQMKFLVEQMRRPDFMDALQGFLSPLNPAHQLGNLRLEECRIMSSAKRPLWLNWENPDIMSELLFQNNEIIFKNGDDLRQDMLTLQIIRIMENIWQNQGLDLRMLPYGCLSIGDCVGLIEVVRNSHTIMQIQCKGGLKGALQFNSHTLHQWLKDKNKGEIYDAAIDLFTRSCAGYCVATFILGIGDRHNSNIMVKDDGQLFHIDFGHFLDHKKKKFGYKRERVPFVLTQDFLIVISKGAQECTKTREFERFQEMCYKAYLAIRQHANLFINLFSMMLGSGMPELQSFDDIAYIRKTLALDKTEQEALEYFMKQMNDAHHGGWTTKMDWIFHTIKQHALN
Sequence of PIK3CA (human), P42336 [C420R] (P42336 whole entry C420R, looked up): as the sequence (P42336 whole entry E545K, looked up) above, with C420R, K545E counted along it
Sequence of PIK3CA (human), P42336 [E545A] (P42336 whole entry E545A, looked up): as the sequence (P42336 whole entry E545K, looked up) above, with K545A counted along it

SMILES: Cn1c2ccccc2c2c3c(c4c5ccccc5n(CCC#N)c4c21)CNC3=O
- kinase still bound, per cent of control (PTK2B (human)): 19%
- kinase still bound, per cent of control (MAPK10 (human)): 20%
- kinase still bound, per cent of control (DAPK1 (human)): 78%
- kinase still bound, per cent of control (ZAP70 (human)): 35%
- kinase still bound, per cent of control (PRKCQ (human)): 59%
- kinase still bound, per cent of control (MAPK3 (human)): 96%
- kinase still bound, per cent of control (RIPK4 (human)): 5.2%
- kinase still bound, per cent of control (STK10 (human)): 28%
- kinase still bound, per cent of control (MKNK1 (human)): 86%
- kinase still bound, per cent of control (CLK3 (human)): 94%
- kinase still bound, per cent of control (CAMKK1 (human)): 6.1%
- kinase still bound, per cent of control [1]: 2.6%
- kinase still bound, per cent of control (PRPF4B (human)): 12%
- kinase still bound, per cent of control [2]: 77%
- kinase still bound, per cent of control (PRKACB (human)): 67%
- kinase still bound, per cent of control (EPHA5 (human)): 96%
- kinase still bound, per cent of control (ICK (human)): 20%
- kinase still bound, per cent of control (PAK4 (human)): 4%
- kinase still bound, per cent of control [3]: 75%
- kinase still bound, per cent of control (GSK3B (human)): 81%
- kinase still bound, per cent of control [4]: 100%
- kinase still bound, per cent of control (NTRK1 (human)): 0.1%
- kinase still bound, per cent of control (ROS1 (human)): 1.8%
- kinase still bound, per cent of control (TYRO3 (human)): 78%
- kinase still bound, per cent of control (TEK (human)): 99%
- kinase still bound, per cent of control (PRKAA2 (human)): 73%
- kinase still bound, per cent of control [5]: 46%
- kinase still bound, per cent of control [6]: 0.6%
- kinase still bound, per cent of control (PRKD1 (human)): 24%
- kinase still bound, per cent of control [7]: 100%
- kinase still bound, per cent of control (LYN (human)): 100%
- kinase still bound, per cent of control [8]: 0.1%
- kinase still bound, per cent of control (TTK (human)): 23%
- kinase still bound, per cent of control (CLK2 (human)): 38%
- kinase still bound, per cent of control (EPHA1 (human)): 97%
- kinase still bound, per cent of control (YSK4 (human)): 0%
- kinase still bound, per cent of control (TIE1 (human)): 100%
- kinase still bound, per cent of control (SIK3 (human)): 100%
- kinase still bound, per cent of control (STK11 (human)): 4.4%
- kinase still bound, per cent of control (PIP5K1C (human)): 100%
- kinase still bound, per cent of control (CLK1 (human)): 16%
- kinase still bound, per cent of control (CDK5 (human)): 61%
